Experimental data reported in EP0775487A1, “TRIAZINE DERIVATIVE AND MEDICINE” (NIPPON SHINYAKU COMPANY, LIMITED, priority 1994, dated 1996).
Read-outs that look alike come from different tables or passages of the source. Marks after values point to notes of the source that are not given here.

Key:
[1] = Effect on body weight gain; assay type: in vivo; conditions: 1,000 mg/kg administered repeatedly (daily), rats
Procedure: The compound of Example 1 was administered to rats daily to investigate its effect on body weight gain.

GST-P-positive lesions = assay: Inhibitory effect on hepatic chemooncogenesis in rats (DEN/AAF/hepatectomy precancerous lesion model, GST-P immunostaining); assay type: in vivo, F344 rats; conditions: for GST-P^+ area (mm^2/cm^2) mean±S.E. / GST-P^+ foci (N/cm^2) mean±S.E.: 0.01% in chow from week 2 to final day (4-week experiment); for GST-P^+ area (mm^2/cm^2) inhibition (%) / GST-P^+ foci (N/cm^2) inhibition (%): 0.01% in chow, versus own control group
Procedure: Method: Five-week-old male F344 rats (Slc), a precancerous lesion model was constructed using the following protocol in accordance with the method of Solt and Faber (Nature, 263, 702-703, 1976). [formula] • ↑ : DEN 200 mg/kg, i.p. • : 70% hepatectomy • : 0.02% AAF • : Diet or water • ←→ : Drug administration period
Thus, the duration of the experiment being set at 4 weeks, 200 mg/kg of diethylnitrosoamine (hereinafter referred to briefly as DEN) was first administered intraperitoneally. Beginning week 2, drinking water containing 0.02% of 2-acetylaminofluorene (hereinafter referred to briefly as AAF) was given ad libitum. At the beginning of week 3, 70% hepatectomy was performed. The test drug was mixed into the animal chow (F-2, Funabashi Farm) at the concentration of 0.01% and administered from week 2 through the final day of the experiment. The compound of Example 1 was used as the test drug and 2,4-diamino-6-(2,5-dichlorophenyl)-1,3,5-triazine as the reference compound.
On the final day of the experiment, all the animals were sacrificed by cervical dislocation under ether anaesthesia. Immediately a portion of the liver was excised, quick-frozen in dry ice-acetone, and stored until used. From the liver, 8 µm-thick frozen sections were prepared and using Vectastain ABC Kit (Funakoshi Yakuhin), immunostained by the ABC method (an enzyme-labeled antibody method) using anti-glutathione-S-transferase placental form (hereinafter referred to briefly as GST-P) antibody as the primary antibody. Thus, sections were returned to room temperature under anhydrous conditions and immersed in 10 mM phosphate-buffered saline (hereinafter referred to briefly as PBS) at pH 7.2 for 15 minutes. Then, goat normal serum and the primary antibody (a 500-fold dilution, 20 µl) were applied to the section and allowed to react overnight. After the reaction, the section was washed with PBS. Then, anti-rabbit secondary antibody was applied and the reaction was carried out for 30 minutes. After washing with PBS, avidin-biotin complex was applied and allowed to react for 30 minutes. The section was washed with PBS and treated with 0.1% diaminobenzidine (DAB) containing 0.02% of hydrogen peroxide for color development, dehydrated, and sealed.
The number of GST-P-positive lesions per cm^2 liver tissue section was counted under an optical microscope and the area was measured with an image analyzer (SPICCA-II, Japan Avionics). The significance testing of mean values was made by Student's t-test and the result was evaluated at the 5% leval of significance.

[2] = tested on: BCG-LPS-induced fulminant hepatitis; assay: Inhibitory effect on BCG-LPS-induced fulminant hepatitis in mice (antihepatitis effect); assay type: in vivo, BALB/C mice; conditions: for Number of deaths/number of animals/used: 50 mg/kg orally 1 hour before LPS i.v., deaths at 48 hours, control mortality 80-100%; for inhibition at 50 mg/kg: Mus musculus, po, 50 mg/kg orally, plasma transaminase at hour 4 after LPS
Procedure: The antihepatitis action of the compound of the invention could be confirmed by the following test in mice. This test is the commonest animal test for evaluating the antihepatitis effect of drugs. It is known that the antihepatitis effect evaluated by this test method is highly correlated with the clinical effect in man (Kondo, Y. et al. Chem. Pharm. Bull. 38, 2887-2889, 1990). Method: Six-week-old male BALB/C mice were intravenously dosed with 1 mg of BCG and after 2 weeks, 50 mg/kg of the test drug was administered orally. Then, after 1 hour, 2.5 µg of lipopolysaccharide (LPS) was injected intravenously to induce hepatitis. To find the LPS-associated mortality, the percentage of deaths at 48 hours was calculated. The mortality in the control group was 80-100%. […] However, for reference's sake, blood was drawn from the orbital vein at hour 4 and the plasma transaminase (GOT, GPT) concentrations were determined. As a reference compound, 2,4-diamino-6-(2,5-dichlorophenyl)-1,3,5-triazine was used.

Acute toxicity = assay type: in vivo, Rats (SD strain); conditions: 1 g/kg orally by gastric gavage, fasted rats, groups of 5
Procedure: Rats of either sex (SD strain, […]) were used in groups of 5. The animals were deprived of food from the previous day (16-18 hours before) and 1 g/kg of the compound of Example 1 was administered orally by gastric gavage. Then, deaths during the subsequent one-week period were recorded.

Compound: Nc1nc(-c2cc(Cl)ccc2Cl)nc(N(CCO)CCO)n1 [Example 1, 2-amino-4-[N,N-bis(2-hydroxyethyl)amino]-6-(2,5-dichlorophenyl)-1,3,5-triazine]
- effect on body weight gain [1]: did not affect body weight gain
- GST-P^+ area (mm^2/cm^2) mean±S.E. (GST-P-positive lesions): 0.8± 0.2 mm^2/cm^2
- GST-P^+ foci (N/cm^2) mean±S.E. (GST-P-positive lesions): 41.5± 5.2 N/cm^2
- GST-P^+ area (mm^2/cm^2) inhibition (%) (GST-P-positive lesions): 48.6%
- GST-P^+ foci (N/cm^2) inhibition (%) (GST-P-positive lesions): 28.9%
- Number of deaths/number of animals/used [2]: 2/10**
- inhibition at 50 mg/kg ([2]; read-out: % Inhibition GOT): 37%
- inhibition at 50 mg/kg ([2]; read-out: % Inhibition GPT): 17%
- deaths during the subsequent one-week period (Acute toxicity): no death was found at all

Compound: CNc1nc(N)nc(-c2cc(Cl)ccc2Cl)n1 [Example 2, 2-Amino-4-(2,5-dichlorophenyl)-6-methylamino-1,3,5-triazine]
- Number of deaths/number of animals/used [2]: 0/10**
- inhibition at 50 mg/kg ([2]; read-out: % Inhibition GOT): 46%
- inhibition at 50 mg/kg ([2]; read-out: % Inhibition GPT): 33%

Compound: CN(C)c1nc(N)nc(-c2cc(Cl)ccc2Cl)n1 [Example 3, 2-Amino-4-(2,5-dichlorophenyl)-6-dimethylamino-1,3,5-triazine]
- Number of deaths/number of animals/used [2]: 0/10**
- inhibition at 50 mg/kg ([2]; read-out: % Inhibition GOT): 37%
- inhibition at 50 mg/kg ([2]; read-out: % Inhibition GPT): 38%

Compound: CN(CCO)c1nc(N)nc(-c2cc(Cl)ccc2Cl)n1 [Example 5, 2-Amino-4-(2,5-dichlorophenyl)-6-[N-methyl-N-(2-hydroxyethyl)amino]-1,3,5-triazine]
- Number of deaths/number of animals/used [2]: 0/10**
- inhibition at 50 mg/kg ([2]; read-out: % Inhibition GOT): 43%
- inhibition at 50 mg/kg ([2]; read-out: % Inhibition GPT): 18%

Compound: COCCNc1nc(N)nc(-c2cc(Cl)ccc2Cl)n1 [Example 6, 2-Amino-4-(2,5-dichlorophenyl)-6-(2-methoxyethylamino)-1,3,5-triazine]
- Number of deaths/number of animals/used [2]: 2/10**
- inhibition at 50 mg/kg ([2]; read-out: % Inhibition GOT): 34%
- inhibition at 50 mg/kg ([2]; read-out: % Inhibition GPT): 29%

Compound: Cc1ccc(OCCN2CCN(c3nc(N)nc(-c4cc(Cl)ccc4Cl)n3)CC2)cc1 [Example 21, 2-Amino-4-(2,5-dichlorophenyl)-6-[4-[2-(4-methylphenoxy)ethyl]piperazin-1-yl]-1,3,5-triazine]
- Number of deaths/number of animals/used [2]: 0/10**
- inhibition at 50 mg/kg ([2]; read-out: % Inhibition GOT): 29%
- inhibition at 50 mg/kg ([2]; read-out: % Inhibition GPT): 10%

Compound: Nc1nc(-c2cc(Cl)ccc2Cl)nc(N2CCCC2)n1 [Example 30, 2-Amino-4-(2,5-dichlorophenyl)-6-pyrrolidino-1,3,5-triazine]
- Number of deaths/number of animals/used [2]: 0/18**
- inhibition at 50 mg/kg ([2]; read-out: % Inhibition GOT): 45%
- inhibition at 50 mg/kg ([2]; read-out: % Inhibition GPT): 31%

Compound: Nc1nc(-c2cc(Cl)ccc2Cl)nc(N2CCC(O)C2)n1.O=C(O)/C=C\C(=O)O (stereo not shown) [Example 31, 2-Amino-4-(2,5-dichlorophenyl)-6-(3-hydroxy-1-pyrrolidinyl)-1,3,5-triazine maleate]
- Number of deaths/number of animals/used [2]: 1/18**
- inhibition at 50 mg/kg ([2]; read-out: % Inhibition GOT): 47%
- inhibition at 50 mg/kg ([2]; read-out: % Inhibition GPT): 34%

Compound: Cl.Nc1nc(-c2cc(Cl)ccc2Cl)nc(N2CCC[C@H]2CO)n1 [Example 32, (S)-2-amino-4-(2,5-dichlorophenyl)-6-(2-hydroxymethyl-1-pyrrolidinyl)-1,3,5-triazine hydrochloride]
- Number of deaths/number of animals/used [2]: 0/18**
- inhibition at 50 mg/kg ([2]; read-out: % Inhibition GOT): 62%
- inhibition at 50 mg/kg ([2]; read-out: % Inhibition GPT): 60%

Compound: Cl.Nc1nc(-c2cc(Cl)ccc2Cl)nc(N2CCC[C@@H]2CO)n1 [Example 33, (R)-2-amino-4-(2,5-dichlorophenyl)-6-(2-hydroxymethyl-1-pyrrolidinyl)-1,3,5-triazine hydrochloride]
- Number of deaths/number of animals/used [2]: 0/18**
- inhibition at 50 mg/kg ([2]; read-out: % Inhibition GOT): 39%
- inhibition at 50 mg/kg ([2]; read-out: % Inhibition GPT): 41%

Compound: Nc1nc(-c2cc(Cl)ccc2Cl)nc(N2CCCC(O)C2)n1 (stereo not shown) [Example 37, 2-Amino-4-(2,5-dichlorophenyl)-6-(3-hydroxy-1-piperidinyl)-1,3,5-triazine]
- Number of deaths/number of animals/used [2]: 0/18**
- inhibition at 50 mg/kg ([2]; read-out: % Inhibition GOT): 43%
- inhibition at 50 mg/kg ([2]; read-out: % Inhibition GPT): 38%

Compound: Nc1nc(-c2cc(Cl)ccc2Cl)nc(N2CCC(=O)CC2)n1 [Example 56, 2-Amino-4-(2,5-dichlorophenyl)-6-(4-oxo-1-piperidinyl)-1,3,5-triazine]
- Number of deaths/number of animals/used [2]: 0/15**
- inhibition at 50 mg/kg ([2]; read-out: % Inhibition GOT): 38%
- inhibition at 50 mg/kg ([2]; read-out: % Inhibition GPT): 37%

Compound: Cl.Cl.NCC1CCN(c2nc(N)nc(-c3cc(Cl)ccc3Cl)n2)C1 (stereo not shown) [Example 62, 2-Amino-4-(2,5-dichlorophenyl)-6-(3-aminomethyl-1-pyrrolidinyl)-1,3,5-triazine dihydrochloride]
- Number of deaths/number of animals/used [2]: 0/15**
- inhibition at 50 mg/kg ([2]; read-out: % Inhibition GOT): 29%
- inhibition at 50 mg/kg ([2]; read-out: % Inhibition GPT): 38%

Compound: Nc1nc(N)nc(-c2cc(Cl)ccc2Cl)n1 [Reference Compound, 2,4-diamino-6-(2,5-dichlorophenyl)-1,3,5-triazine, reference compound]
- GST-P^+ area (mm^2/cm^2) mean±S.E. (GST-P-positive lesions): 3.6±0.7 mm^2/cm^2
- GST-P^+ foci (N/cm^2) mean±S.E. (GST-P-positive lesions): 67.9± 8.7 N/cm^2
- GST-P^+ area (mm^2/cm^2) inhibition (%) (GST-P-positive lesions): 7.7%
- GST-P^+ foci (N/cm^2) inhibition (%) (GST-P-positive lesions): 9.7%
- Number of deaths/number of animals/used [2]: 0/10*
- inhibition at 50 mg/kg ([2]; read-out: % Inhibition GOT): 21%
- inhibition at 50 mg/kg ([2]; read-out: % Inhibition GPT): -6%

Compound: Nc1nc(-c2cc(Cl)ccc2Cl)nc(N2CCOCC2)n1 [Reference Example 5, 2-Amino-4-(2,5-dichlorophenyl)-6-morpholino-1,3,5-triazine]
- Number of deaths/number of animals/used [2]: 0/18**
- inhibition at 50 mg/kg ([2]; read-out: % Inhibition GOT): 58%
- inhibition at 50 mg/kg ([2]; read-out: % Inhibition GPT): 45%
